Results from patent US10233186B2, “Inhibitors of activin receptor-like kinase” (BLUEPRINT MEDICINES CORPORATION, priority 2016, dated 2019).

Biological target: T1, ALK2 R206H (GST-tagged mutant ALK2) (Homo sapiens, UniProt Q04771, R206H)
T1 construct: purchased Carna Bioscience or ThermoFisher 09-148 or PV6232
T1 sequence (Q04771 21-509 R206H): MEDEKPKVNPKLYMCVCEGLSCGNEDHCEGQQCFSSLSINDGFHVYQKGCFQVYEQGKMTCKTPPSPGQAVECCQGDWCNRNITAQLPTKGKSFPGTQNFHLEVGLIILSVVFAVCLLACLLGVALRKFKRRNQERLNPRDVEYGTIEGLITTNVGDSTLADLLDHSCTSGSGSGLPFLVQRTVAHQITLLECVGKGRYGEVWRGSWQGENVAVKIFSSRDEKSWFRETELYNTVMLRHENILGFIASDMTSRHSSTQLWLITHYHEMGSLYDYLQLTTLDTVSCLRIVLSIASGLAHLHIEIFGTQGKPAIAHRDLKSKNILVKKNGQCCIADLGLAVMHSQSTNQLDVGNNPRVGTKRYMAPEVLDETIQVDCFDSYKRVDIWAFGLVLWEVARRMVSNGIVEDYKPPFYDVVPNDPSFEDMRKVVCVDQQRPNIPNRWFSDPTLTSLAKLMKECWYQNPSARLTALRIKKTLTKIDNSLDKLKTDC
Assay: ALK binding assay (LANTHASCREEN TR-FRET competitive binding, displacement of Kinase Tracer 178)
Conditions: ALK2 R206H, LANTHASCREEN TR-FRET competitive binding; read-out: Binding Assay (IC50)
Procedure: Binding assays were conducted using the LANTHASCREEN® technology (ThermoFisher Scientific). LANTHASCREEN® is a competitive binding, displacement assay where the assumed steady state occupancy of the binding site is measured using a time-resolved, fluorescence energy transfer (TR-FRET) readout between a fluorescent tracer and Europium (Eu)-tagged antibody specific for the kinase or expression tag (e.g. GST) of interest. Displacement of the tracer by a compound of the disclosure reduces, and is directly proportional to, the TR-FRET between the tracer and the antibody. Tracer was used at a concentration equal to or near to its Kd for the kinase.
In all cases, the kinase (2-5 nM) was mixed with Eu-tagged antibody (10 nM) mix and tracer (50 nM) were incubated with test compound titrations prepared in 100% DMSO (1% DMSO final) for 30 minutes at room temperature. All reagents and compounds were dissolved in Kinase Buffer A (ThermoFisher) to achieve the final concentration. […] This readout was normalized to 0% and 100% inhibited control wells, plotted against inhibitor concentration, and fitted to a 4-parameter log dose response curve.
Blank values in the table indicate that the particular compound was not tested in this assay.

| SMILES | IC50 [nM] |
| --- | --- |
| CCN1CCN(c2ccc(-c3cc4c(N5CCN(C(=O)N6CC7(COC7)C6)CC5)ccnn4c3)cc2)CC1 [Compound 417] | 10 to 50 |
| CCN1CCN(c2ccc(-c3cc4c(N5CCN(C(=O)N6CC(COC)C6)CC5)ccnn4c3)cc2)CC1 [Compound 425] | > 50 |
| CCN1CCN(c2ccc(-c3cc4c(N5CCN(C(=O)C6(c7cccnc7)CC6)CC5)ccnn4c3)cc2)CC1 [Compound 433] | > 50 |
| CCN1CCN(c2ccc(-c3cc4c(N5CCN(C(=O)C6(c7cccs7)CC6)CC5)ccnn4c3)cc2)CC1 [Compound 438] | 10 to 50 |
| CCN1CCN(c2ccc(-c3cc4c(N5CCN(C(=O)C6(c7ccsc7)CC6)CC5)ccnn4c3)cc2)CC1 [Compound 439] | 10 to 50 |
| CCN1CCN(c2ccc(-c3cc4c(N5CCN(C(=O)C6(c7nccs7)CC6)CC5)ccnn4c3)cc2)CC1 [Compound 440] | > 50 |
| CCN1CCN(c2ccc(-c3cc4c(N5CCN(C(=O)C6(c7cccc(F)c7)CC6)CC5)ccnn4c3)cc2)CC1 [Compound 443] | 10 to 50 |
| CCN1CCC(c2ccc(-c3cc4c(N5CCN(C(=O)C6CC6c6ccc(Cl)cc6)CC5)ccnn4c3)cc2)C1 (stereo not drawn) [Compound 444] | 10 to 50 |
| CCN1CCC(c2ccc(-c3cc4c(N5CCN(C(=O)C6CC(O)(c7ccccc7)C6)CC5)ccnn4c3)cc2)CC1 (stereo not drawn) [Compound 446] | < 10 |
| N[C@H]1CCc2cc(-c3cc4c(N5CCN(C(=O)C6CC6)CC5)ccnn4c3)ccc21 [Compound 449] | < 10 |
| O=C(C1CC1)N1CCN(c2ccnn3cc(-c4ccc(C5=CCNCC5)cc4)cc23)CC1 [Compound 458] | < 10 |
| N[C@H]1CCN(c2ccc(-c3cc4c(N5CCN(C(=O)C6CC6)CC5)ccnn4c3)cc2)C1 [Compound 461] | < 10 |
| CC(c1ccc(-c2cc3c(N4CCN(C(=O)C5CC5)CC4)ccnn3c2)cc1)N1CCCC1 (stereo not drawn) [Compound 471] | > 50 |
| CC(C)N[C@H]1CCc2cc(-c3cc4c(N5CCN(C(=O)C6CC6)CC5)ccnn4c3)ccc21 [Compound 472] | < 10 |
| CC(C)N1C[C@H](c2ccc(-c3cc4c(N5CCN(C(=O)C6CC6)CC5)ccnn4c3)cc2)C[C@H]1C [Compound 506] | 10 to 50 |
| CC(C)N1CCC(c2ncc(-c3cc4c(N5CCN(C(=O)C6CC6)CC5)ccnn4c3)cn2)CC1 [Compound 525] | < 10 |
| CC(C)N1CCN(c2cnc(-c3cc4c(N5CCN(C(=O)C6CC6)CC5)ccnn4c3)nc2)CC1 [Compound 528] | 10 to 50 |
| CC(C)N1CCN(c2cnc(-c3cc4c(N5CCN(C(=O)C6CC6)CC5)ccnn4c3)cn2)CC1 [Compound 529] | < 10 |
| CCOC(=O)N1CCN(c2ccnn3cc(-c4ccc([C@]5(C)CCCN5C(C)C)cc4)cc23)CC1 [Compound 535] | < 10 |

| SMILES | IC50 [nM] |
| --- | --- |
| CCOC(=O)N1CCN(c2ccnn3cc(-c4ccc([C@@]5(C)CCCN5C(C)C)cc4)cc23)CC1 [Compound 536] | < 10 |
| CCNC(=O)N1CCN(c2ccnn3cc(-c4cnc(C5CCN(C(C)C)CC5)nc4)cc23)CC1 [Compound 547] | < 10 |
| CCOC(=O)N1CCN(c2ccnn3cc(-c4cnc(C5CCN(C(C)C)CC5)nc4)cc23)CC1 [Compound 552] | < 10 |
| CCNC(=O)N1CCN(c2ccnn3cc(-c4ncc(N5CCN(C(C)C)CC5)cn4)cc23)CC1 [Compound 553] | 10 to 50 |
| CCOC(=O)N1CCN(c2ccnn3cc(-c4ncc(N5CCN(C(C)C)CC5)cn4)cc23)CC1 [Compound 555] | < 10 |
| CC(C)N1CCN[C@@](C)(c2ccc(-c3cc4c(N5CCN(C(=O)C6CC6)CC5)ccnn4c3)cc2)C1 [Compound 569] | < 10 |
| CC(C)N1CC=C(c2ccc(-c3cc4c(N5CCN(C(=O)C6CC6)CC5)ccnn4c3)c(F)c2)CC1 [Compound 571] | < 10 |
| CC(C)N1CCC(c2ccc(-c3cc4c(N5CCN(C(=O)C6COC6)CC5)ccnn4c3)cc2)CC1 [Compound 574] | < 10 |
| CC(C)N1CCC(c2ccc(-c3cc4c(N5CCN(C(=O)C6CC6)CC5)ccnn4c3)c(F)c2)CC1 [Compound 584] | < 10 |
| COCNC(=O)N1CCN(c2ccnn3cc(-c4ccc(C5CCN(C(C)C)CC5)cc4)cc23)CC1 [Compound 590] | < 10 |
| CCOC(=O)N1CCN(c2ccnn3cc(-c4ccc(C5=CCN(C(C)C)CC5)cc4F)cc23)CC1 [Compound 602] | < 10 |
| CC(C)NC(=O)N1CCN(c2ccnn3cc(-c4ccc([C@]5(O)CCN(C(C)C)C5)cn4)cc23)CC1 [Compound 607] | < 10 |
| CCOC(=O)N1CCN(c2ccnn3cc(-c4ccc(C5CCN(C(C)C)CC5)cc4F)cc23)CC1 [Compound 612] | < 10 |
| CCNC(=O)N1CCN(c2ccnn3cc(-c4ccc([C@]5(OC)CCCN(C(C)C)C5)cc4)cc23)CC1 [Compound 639] | < 10 |
| CCNC(=O)N1CCN(c2ccnn3cc(-c4ccc([C@@]5(OC)CCCN(C(C)C)C5)cc4)cc23)CC1 [Compound 640] | < 10 |
| CC(C)N1CCC(c2ccc(-c3cc4c(N5CCN(C(=O)OCC(C)(C)C)CC5)ccnn4c3)cc2)CC1 [Compound 670] | < 10 |
| CC(C)NC(=O)N1CCN(c2ccnn3cc(-c4ccc(C5CCN(C(C)C)CC5)cc4Cl)cc23)CC1 [Compound 700] | < 10 |
| CC(C)N1CCCC(O)(c2ccc(-c3cc4c(N5CCN(C(=O)C6CC(C#N)C6)CC5)ccnn4c3)cc2)C1 (stereo not drawn) [Compound 707] | < 10 |
| CCO[C@]1(c2ccc(-c3cc4c(N5CCN(C(=O)NC(C)C)CC5)ccnn4c3)nc2)CCCN(C(C)C)C1 [Compound 717] | < 10 |

| SMILES | IC50 [nM] |
| --- | --- |
| COC1(c2ccc(-c3cc4c(N5CCN(C(=O)C6CC(C#N)C6)CC5)ccnn4c3)cc2)CCCN(C(C)C)C1 (stereo not drawn) [Compound 730] | < 10 |
| COC1(c2ccc(-c3cc4c(N5CCN(C(=O)[C@H]6C[C@H](C#N)C6)CC5)ccnn4c3)nc2)CCN([C@H](C)CO)CC1 [Compound 742] | < 10 |
| NCC(O)c1ccc(-c2cc3c(N4CCN(C(=O)C5CC5)CC4)ccnn3c2)cc1 (stereo not drawn) [Compound 751] | < 10 |
| O=C(C1CC1)N1CCN(c2ccnn3cc(-c4ccc(CNCCO)cc4)cc23)CC1 [Compound 756] | < 10 |
| NC(CO)Cc1ccc(-c2cc3c(N4CCN(C(=O)C5CC5)CC4)ccnn3c2)cc1 (stereo not drawn) [Compound 757] | < 10 |
| COCC(N)c1ccc(-c2cc3c(N4CCN(C(=O)C5CC5)CC4)ccnn3c2)cc1 (stereo not drawn) [Compound 758] | < 10 |
| NC(CO)c1ccc(-c2cc3c(N4CCN(C(=O)C5CC5)CC4)ccnn3c2)c(F)c1 (stereo not drawn) [Compound 759] | < 10 |
| CCS(=O)(=O)c1ccc(-c2cc3c(N4CCN(C(=O)C5CC5)CC4)ccnn3c2)cc1 [Compound 765] | < 10 |
| O=C(C1CC1)N1CCN(c2ccnn3cc(-c4ccc(C5CC6(CNC6)C5)cc4)cc23)CC1 [Compound 767] | < 10 |
| NC(c1ccc(-c2cc3c(N4CCN(C(=O)C5CC5)CC4)ccnn3c2)cc1)C1CCCO1 (stereo not drawn) [Compound 769] | < 10 |
| O=C(C1CC1)N1CCN(c2ccnn3cc(-c4ccc(C5(C(=O)O)CCNCC5)cc4)cc23)CC1 [Compound 781] | 10 to 50 |
| CO[C@]1(c2ccc(-c3cc4c(N5CCN(C(=O)NC(C)C)CC5)ccnn4c3)cc2F)CCCNC1 [Compound 806] | < 10 |
| CO[C@@]1(c2ccc(-c3cc4c(N5CCN(C(=O)NC(C)C)CC5)ccnn4c3)cc2F)CCCNC1 [Compound 807] | < 10 |
| CC(C)N1CCC(c2ccc(-c3cc4c(N5CCN(C(=O)NCC(F)F)CC5)ccnn4c3)cc2)CC1 [Compound 822] | 10 to 50 |
| CC(C)N1CCC(c2ccc(-c3cc4c(N5CCN(C(=O)N6CC7(COC7)C6)CC5)ccnn4c3)cc2)CC1 [Compound 841] | 10 to 50 |
| CC(C)N1CCC(c2ccc(-c3cc4c(N5CCN(C(=O)N6CCC67COC7)CC5)ccnn4c3)cc2)CC1 [Compound 842] | 10 to 50 |
| CCOC1(c2ccc(-c3cc4c(N5CCN(C(=O)NC(C)C)CC5)ccnn4c3)nc2)CCN(C[C@@H](C)F)CC1 [Compound 862] | < 10 |
| CCOC1(c2ccc(-c3cc4c(N5CCN(C(=O)O[C@@H](C)CF)CC5)ccnn4c3)nc2)CCN(C(C)C)CC1 [Compound 866] | < 10 |
| CCOC1(c2ccc(-c3cc4c(N5CCN(C(=O)OC6COC6)CC5)ccnn4c3)nc2)CCN(C(C)CF)CC1 (stereo not drawn) [Compound 881] | < 10 |
